Test results from patent US4416874A, “Injectable compositions of BBM-928A” (Bristol-Myers Company, priority 1982, dated 1983).
Converted amounts (≈) assume the structure as drawn. Like-named read-outs stand apart in the source and are kept apart here.

Experiments:
[1] = Solubility in solvents and pharmaceutical vehicles; format: physicochemical
Protocol: Is thus evident that due to the hydrolytic sensitivity and insolubility of BBM-928A that a formidable pharmaceutical formulation problem is presented for the intravenous use thereof.
The disodium salt of BBM-928A has been prepared by dissolving BBM-928A in aqueous sodium hydroxide at pH 10.5, washing with chloroform, and lyophilizing the aqueous solution. Its solubility in water is 0.5 mg/ml. In the dry state disodium BBM-928A gradually decomposes to BBM-928B and BBM-928C at higher temperatures. The following Table exemplifies this:
Limited solubility in the following solvents was observed.
(§1) The preferred composition of the present invention employs trisodium orthophosphate as the base for solubilization of BBM-928A. Solutions having concentrations of BBM-928A of from 1 to 5 mg per milliliter are readily prepared when 0.65 parts by weight of trisodium orthophosphate per part by weight of BBM-928A are employed. Such solutions have a pH within the range of 11.0 to 11.5. If an amount of the base is employed which is insufficient to provide a pH value of pH 11.0 the desired level of solubilization of the BBM-928A is not achieved. At pH values in excess of 11.5 decomposition through hydrolysis of the BBM-928A becomes so extensive as to result in loss of utility of the solutions. […] Such solutions should not be kept for longer periods but should be prepared extemporaneously prior to use. Conventional aseptic techniques conforming to the criteria of both good laboratory practices and good manufacturing practices should be employed in preparing the compositions of the present invention.

[2] = Stability of intravenous solutions at pH 11.0 to 11.5 (high performance liquid chromatography); format: physicochemical; conditions: intravenous solution solubilized by trisodium phosphate
Protocol: as §1, with “Conventional aseptic techniques conforming to the criteria of both good laboratory practices and good manufacturing practices should be employed in preparing the compositions of the present invention.” left out
The resulting bulk powder is then filled into glass vials at the rate of 16.5 mg. per vial (10 mg. BBM-928A), and the vials sealed by a proper closure to maintain the anhydrous sterile condition. […] Each vial is constituted for intravenous injection with the desired quantity of sterile water for injection in an amount of 2 ml. or more per vial (conc. up to 5 mg/ml. and preferably from 1 to 5 mg/ml. of BBM-928A). […]

[3] = chloroform and methylene chloride; cited from earlier work

In the case of `COc1ccc2nc(C(=O)N[C@@H]3COC(=O)[C@H](C(C)(C)O)N(C)C(=O)CN(C)C(=O)CNC(=O)[C@@H]4[C@@H](OC(C)=O)CC=NN4C(=O)[C@H](NC(=O)c4nc5ccc(OC)cc5cc4O)COC(=O)[C@H](C(C)(C)O)N(C)C(=O)CN(C)C(=O)CNC(=O)[C@@H]4[C@@H](OC(C)=O)CC=NN4C3=O)c(O)cc2c1` [BBM-928A], the solubility ([1]; Aqueous L-arginine 10%, yellow solution with a slight haze) is reported as 1000 µg/mL (≈ 701 µM), the solubility ([1]; Ethyl lactate, slight haze) is reported as “about 1 mg/ml” and the solubility ([1]; Ethyl levulinate, standing in contact with the solvent overnight) is reported as 500 µg/mL (≈ 350 µM). For the same compound, the solubility ([1]; Lactic acid U.S.P.) was 1000 µg/mL (≈ 701 µM), the “solubility in 22 commonly employed pharmaceutical vehicles” value ([1]; poloxamer polyols, benzyl alcohol, ethanol, fixed oils, propylene glycol, polyethylene glycol 400, urea, povidone, nicotinamide, dextrose solutions etc.) was “virtually insoluble” and the “period of sufficient stability for use following preparation” value [2] was “up to 4 hours”. For the same compound, the solubility [3] was “readily soluble”.
